# Measurements: ChEMBL document CHEMBL5316339, “Discovery of a Series of Substituted 1H-((1,2,3-Triazol-4-yl)methoxy)pyrimidines as Brain Penetrants and Potent GluN2B-Selective Negative Allosteric Modulators” (J Med Chem, 2023)
# How the values were obtained:
# [1] = biological target: Glutamate NMDA receptor; GRIN1/GRIN2B (Homo sapiens, UniProt Q05586+Q13224); experiment: Negative allosteric modulation of human GluN1A/GluN2B receptor expressed in T-REX-CHO cells preincubated for 5 mins followed by glutamate and glycine addition and measured after 5 mins by FLIPR assay; assay type: cell-based
# Chain of Glutamate NMDA receptor; GRIN1/GRIN2B (Q13224 whole entry, other chains not shown): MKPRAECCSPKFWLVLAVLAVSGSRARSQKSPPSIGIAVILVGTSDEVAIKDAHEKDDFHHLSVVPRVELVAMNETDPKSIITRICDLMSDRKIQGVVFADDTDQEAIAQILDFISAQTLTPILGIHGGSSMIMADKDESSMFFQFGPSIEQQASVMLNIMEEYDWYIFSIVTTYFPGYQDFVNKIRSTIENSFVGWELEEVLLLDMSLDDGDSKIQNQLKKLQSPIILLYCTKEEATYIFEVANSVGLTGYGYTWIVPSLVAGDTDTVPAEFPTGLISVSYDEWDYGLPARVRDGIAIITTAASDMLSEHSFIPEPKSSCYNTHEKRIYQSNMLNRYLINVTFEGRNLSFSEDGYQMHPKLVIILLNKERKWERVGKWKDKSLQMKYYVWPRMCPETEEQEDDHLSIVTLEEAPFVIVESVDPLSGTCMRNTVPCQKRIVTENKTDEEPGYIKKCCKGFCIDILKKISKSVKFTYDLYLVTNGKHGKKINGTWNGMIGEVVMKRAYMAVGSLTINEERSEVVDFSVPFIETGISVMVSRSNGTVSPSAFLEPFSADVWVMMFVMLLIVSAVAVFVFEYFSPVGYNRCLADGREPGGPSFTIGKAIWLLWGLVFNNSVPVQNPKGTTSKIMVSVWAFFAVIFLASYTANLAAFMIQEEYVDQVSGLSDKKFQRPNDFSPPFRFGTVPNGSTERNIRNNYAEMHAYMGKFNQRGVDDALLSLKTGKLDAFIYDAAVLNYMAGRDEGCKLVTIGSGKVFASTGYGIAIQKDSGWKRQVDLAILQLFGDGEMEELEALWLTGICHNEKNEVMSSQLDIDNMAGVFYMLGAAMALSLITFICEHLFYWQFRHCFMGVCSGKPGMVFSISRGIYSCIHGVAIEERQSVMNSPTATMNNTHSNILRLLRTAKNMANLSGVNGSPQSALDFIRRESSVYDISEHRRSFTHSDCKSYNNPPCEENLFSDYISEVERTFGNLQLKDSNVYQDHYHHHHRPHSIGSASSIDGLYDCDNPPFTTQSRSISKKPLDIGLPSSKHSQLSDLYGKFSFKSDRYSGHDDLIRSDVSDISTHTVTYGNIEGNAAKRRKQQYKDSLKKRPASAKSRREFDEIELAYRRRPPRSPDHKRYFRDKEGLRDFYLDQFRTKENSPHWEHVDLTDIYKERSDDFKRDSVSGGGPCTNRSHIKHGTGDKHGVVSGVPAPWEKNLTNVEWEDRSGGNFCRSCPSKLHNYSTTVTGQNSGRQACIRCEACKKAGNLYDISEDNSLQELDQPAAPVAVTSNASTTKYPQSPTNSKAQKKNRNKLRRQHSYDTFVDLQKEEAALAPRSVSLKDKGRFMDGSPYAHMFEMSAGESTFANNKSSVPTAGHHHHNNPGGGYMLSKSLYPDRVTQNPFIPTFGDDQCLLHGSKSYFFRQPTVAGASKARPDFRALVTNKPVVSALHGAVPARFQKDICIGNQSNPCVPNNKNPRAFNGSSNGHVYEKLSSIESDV
# [2] = biological target: Glutamate receptor ionotropic, NMDA 2B (Rattus norvegicus, UniProt Q00960); experiment: Displacement of 3-(3H) 1-(azetidin-1-yl)-2-(6- (4-fluoro-3-methyl-phenyl)pyrrolo-[…] pyridin-1yl)ethanone from GluN2B receptor in rat cortical membrane assessed as inhibition constant incubated for 2 hrs under shaking condition by liquid scintillator counter analysis; assay type: cell membranes, Cortex
# Chain of Glutamate receptor ionotropic, NMDA 2B (Q00960 whole entry): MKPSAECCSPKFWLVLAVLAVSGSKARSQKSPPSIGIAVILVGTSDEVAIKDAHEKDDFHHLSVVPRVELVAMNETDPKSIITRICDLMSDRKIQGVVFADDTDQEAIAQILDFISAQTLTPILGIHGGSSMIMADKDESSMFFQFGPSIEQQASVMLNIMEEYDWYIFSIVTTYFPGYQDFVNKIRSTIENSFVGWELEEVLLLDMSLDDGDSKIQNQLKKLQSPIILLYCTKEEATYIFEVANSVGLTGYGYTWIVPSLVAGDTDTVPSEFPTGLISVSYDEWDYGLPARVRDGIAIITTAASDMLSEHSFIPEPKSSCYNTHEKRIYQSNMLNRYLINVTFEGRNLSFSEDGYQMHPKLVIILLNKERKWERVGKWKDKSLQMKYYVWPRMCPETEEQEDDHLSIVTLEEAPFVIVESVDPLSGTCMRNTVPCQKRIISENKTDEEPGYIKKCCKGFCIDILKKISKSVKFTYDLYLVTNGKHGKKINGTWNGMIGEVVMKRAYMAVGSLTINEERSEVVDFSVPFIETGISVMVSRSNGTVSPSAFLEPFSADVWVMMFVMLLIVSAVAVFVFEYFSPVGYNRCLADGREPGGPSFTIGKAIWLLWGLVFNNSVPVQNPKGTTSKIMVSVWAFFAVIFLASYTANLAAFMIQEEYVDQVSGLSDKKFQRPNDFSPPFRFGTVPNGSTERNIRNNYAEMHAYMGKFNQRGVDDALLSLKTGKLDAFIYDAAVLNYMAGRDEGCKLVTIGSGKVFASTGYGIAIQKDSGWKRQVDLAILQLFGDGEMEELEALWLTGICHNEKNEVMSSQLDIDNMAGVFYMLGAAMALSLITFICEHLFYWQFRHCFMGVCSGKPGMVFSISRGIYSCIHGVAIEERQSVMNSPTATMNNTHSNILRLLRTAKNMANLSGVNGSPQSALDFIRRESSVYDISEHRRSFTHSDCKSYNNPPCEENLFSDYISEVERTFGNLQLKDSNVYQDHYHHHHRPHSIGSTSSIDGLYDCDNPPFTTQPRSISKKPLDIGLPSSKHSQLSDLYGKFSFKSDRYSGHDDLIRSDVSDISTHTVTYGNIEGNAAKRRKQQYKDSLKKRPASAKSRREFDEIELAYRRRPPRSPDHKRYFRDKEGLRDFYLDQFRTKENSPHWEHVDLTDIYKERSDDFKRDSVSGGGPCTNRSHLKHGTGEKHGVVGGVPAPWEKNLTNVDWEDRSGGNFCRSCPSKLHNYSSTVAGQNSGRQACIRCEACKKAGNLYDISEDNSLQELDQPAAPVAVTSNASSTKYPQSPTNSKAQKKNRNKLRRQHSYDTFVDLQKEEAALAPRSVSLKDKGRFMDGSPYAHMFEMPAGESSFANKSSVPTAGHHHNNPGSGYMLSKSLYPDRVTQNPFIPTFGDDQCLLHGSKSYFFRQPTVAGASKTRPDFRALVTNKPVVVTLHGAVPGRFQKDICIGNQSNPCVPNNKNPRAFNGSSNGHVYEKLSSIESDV
# [3] = biological target: Voltage-gated inwardly rectifying potassium channel KCNH2 (Homo sapiens, UniProt Q12809); experiment: Displacement of [3H]dofetilide from human ERG expressed in HEK293 cells; assay type: toxicity, cell-based
# Chain of Voltage-gated inwardly rectifying potassium channel KCNH2 (Q12809 whole entry): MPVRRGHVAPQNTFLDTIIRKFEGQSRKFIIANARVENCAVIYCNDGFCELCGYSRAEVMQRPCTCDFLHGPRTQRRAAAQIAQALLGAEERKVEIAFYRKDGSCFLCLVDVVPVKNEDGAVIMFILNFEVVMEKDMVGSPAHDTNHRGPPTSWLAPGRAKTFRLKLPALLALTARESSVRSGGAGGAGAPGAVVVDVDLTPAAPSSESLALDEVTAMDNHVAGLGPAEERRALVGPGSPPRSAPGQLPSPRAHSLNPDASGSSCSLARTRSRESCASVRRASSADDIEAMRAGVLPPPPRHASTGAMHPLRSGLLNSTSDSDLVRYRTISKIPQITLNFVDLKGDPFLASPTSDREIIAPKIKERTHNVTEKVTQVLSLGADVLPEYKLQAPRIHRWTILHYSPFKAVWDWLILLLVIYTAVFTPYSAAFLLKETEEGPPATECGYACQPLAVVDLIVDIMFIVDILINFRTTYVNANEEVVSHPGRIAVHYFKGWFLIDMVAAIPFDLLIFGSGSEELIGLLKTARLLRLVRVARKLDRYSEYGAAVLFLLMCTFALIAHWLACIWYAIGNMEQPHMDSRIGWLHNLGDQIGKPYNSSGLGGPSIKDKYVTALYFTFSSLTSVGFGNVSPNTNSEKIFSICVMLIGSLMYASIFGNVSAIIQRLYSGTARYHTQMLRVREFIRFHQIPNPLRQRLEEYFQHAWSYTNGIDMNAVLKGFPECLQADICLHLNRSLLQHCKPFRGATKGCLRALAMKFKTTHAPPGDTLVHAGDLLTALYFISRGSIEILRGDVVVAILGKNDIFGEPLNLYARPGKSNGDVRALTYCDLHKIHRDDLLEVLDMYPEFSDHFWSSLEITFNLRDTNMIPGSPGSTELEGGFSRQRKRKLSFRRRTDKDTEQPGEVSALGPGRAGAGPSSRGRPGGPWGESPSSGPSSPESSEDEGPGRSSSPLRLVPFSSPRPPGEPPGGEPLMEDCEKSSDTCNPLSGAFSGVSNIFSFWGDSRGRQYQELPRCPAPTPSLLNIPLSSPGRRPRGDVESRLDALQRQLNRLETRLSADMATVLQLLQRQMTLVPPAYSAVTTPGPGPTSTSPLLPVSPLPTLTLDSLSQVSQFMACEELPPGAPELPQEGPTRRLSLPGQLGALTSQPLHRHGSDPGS
# MDR1 (P-gp) = experiment: Efflux ratio of apparent permeability from basolateral to apical side over apical to basolateral side in MDCK-MDR1 cells at 5 uM incubated for 60 mins by LC-MS/MS analysis; assay type: ADME, cell-based, Canis lupus familiaris; settings: dog
# Cytochrome P450 1A2 = biological target: T1, Cytochrome P450 1A2 (Homo sapiens, UniProt P05177); experiment: Inhibition of CYP1A2 in human liver microsomes incubated for 10 mins by LC-MS/MS analysis; assay type: ADME, Microsome
# T1 sequence (P05177 whole entry): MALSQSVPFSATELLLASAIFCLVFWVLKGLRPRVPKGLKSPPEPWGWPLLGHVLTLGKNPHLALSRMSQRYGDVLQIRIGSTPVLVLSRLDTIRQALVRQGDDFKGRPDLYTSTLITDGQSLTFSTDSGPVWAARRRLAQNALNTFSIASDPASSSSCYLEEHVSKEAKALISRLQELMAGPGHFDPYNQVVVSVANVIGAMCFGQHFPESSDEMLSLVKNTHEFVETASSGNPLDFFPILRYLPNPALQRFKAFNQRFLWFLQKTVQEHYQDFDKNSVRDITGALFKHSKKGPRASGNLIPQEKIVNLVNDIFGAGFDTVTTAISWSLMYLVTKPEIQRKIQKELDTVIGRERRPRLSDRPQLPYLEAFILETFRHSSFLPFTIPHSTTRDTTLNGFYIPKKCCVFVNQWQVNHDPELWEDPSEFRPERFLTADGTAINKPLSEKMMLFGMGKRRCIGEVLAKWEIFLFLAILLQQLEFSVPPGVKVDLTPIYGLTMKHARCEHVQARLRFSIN
# Cytochrome P450 2C19 = Cytochrome P450 2C19 (Homo sapiens, UniProt P33261); experiment: Inhibition of CYP2C19 in human liver microsomes incubated for 10 mins by LC-MS/MS analysis; assay type: ADME, Microsome
# Chain of Cytochrome P450 2C19 (P33261 whole entry): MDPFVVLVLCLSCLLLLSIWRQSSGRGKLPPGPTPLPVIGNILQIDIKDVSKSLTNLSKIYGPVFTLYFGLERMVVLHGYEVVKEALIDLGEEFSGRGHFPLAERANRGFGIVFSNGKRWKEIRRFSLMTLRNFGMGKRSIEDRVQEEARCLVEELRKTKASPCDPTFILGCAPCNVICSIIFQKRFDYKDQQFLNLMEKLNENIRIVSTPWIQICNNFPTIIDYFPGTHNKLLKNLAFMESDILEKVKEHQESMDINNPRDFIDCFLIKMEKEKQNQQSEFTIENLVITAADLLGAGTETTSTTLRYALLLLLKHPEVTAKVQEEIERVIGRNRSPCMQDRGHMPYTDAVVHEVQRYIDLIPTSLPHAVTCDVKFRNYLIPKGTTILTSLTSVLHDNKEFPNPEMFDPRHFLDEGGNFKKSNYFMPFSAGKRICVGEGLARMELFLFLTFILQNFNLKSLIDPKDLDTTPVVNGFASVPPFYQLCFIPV
# Cytochrome P450 2C8 = biological target: T2, Cytochrome P450 2C8 (Homo sapiens, UniProt P10632); experiment: Inhibition of CYP2C8 in human liver microsomes incubated for 10 mins by LC-MS/MS analysis; assay type: ADME, Microsome
# T2 sequence (P10632 whole entry): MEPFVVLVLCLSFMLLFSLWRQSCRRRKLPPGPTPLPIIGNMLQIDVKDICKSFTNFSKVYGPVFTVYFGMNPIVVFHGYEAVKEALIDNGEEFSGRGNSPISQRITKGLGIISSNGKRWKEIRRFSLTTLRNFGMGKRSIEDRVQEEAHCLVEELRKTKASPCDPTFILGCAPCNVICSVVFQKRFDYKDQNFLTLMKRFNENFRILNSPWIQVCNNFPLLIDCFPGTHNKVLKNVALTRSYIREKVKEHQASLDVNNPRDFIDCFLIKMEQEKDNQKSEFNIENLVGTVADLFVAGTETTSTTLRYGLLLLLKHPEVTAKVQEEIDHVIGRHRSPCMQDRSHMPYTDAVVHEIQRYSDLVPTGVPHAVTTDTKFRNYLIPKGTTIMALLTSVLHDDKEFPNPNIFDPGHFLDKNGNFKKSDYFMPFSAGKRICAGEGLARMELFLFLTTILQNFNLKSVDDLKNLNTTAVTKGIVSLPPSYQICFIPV
# Cytochrome P450 2C9 = Cytochrome P450 2C9 (Homo sapiens, UniProt P11712); experiment: Inhibition of CYP2C9 in human liver microsomes incubated for 10 mins by LC-MS/MS analysis; assay type: ADME, Microsome
# Cytochrome P450 2D6 = Cytochrome P450 2D6 (Homo sapiens, UniProt P10635); experiment: Inhibition of CYP2D6 in human liver microsomes incubated for 10 mins by LC-MS/MS analysis; assay type: ADME, Microsome
# Chain of Cytochrome P450 2D6 (P10635 whole entry): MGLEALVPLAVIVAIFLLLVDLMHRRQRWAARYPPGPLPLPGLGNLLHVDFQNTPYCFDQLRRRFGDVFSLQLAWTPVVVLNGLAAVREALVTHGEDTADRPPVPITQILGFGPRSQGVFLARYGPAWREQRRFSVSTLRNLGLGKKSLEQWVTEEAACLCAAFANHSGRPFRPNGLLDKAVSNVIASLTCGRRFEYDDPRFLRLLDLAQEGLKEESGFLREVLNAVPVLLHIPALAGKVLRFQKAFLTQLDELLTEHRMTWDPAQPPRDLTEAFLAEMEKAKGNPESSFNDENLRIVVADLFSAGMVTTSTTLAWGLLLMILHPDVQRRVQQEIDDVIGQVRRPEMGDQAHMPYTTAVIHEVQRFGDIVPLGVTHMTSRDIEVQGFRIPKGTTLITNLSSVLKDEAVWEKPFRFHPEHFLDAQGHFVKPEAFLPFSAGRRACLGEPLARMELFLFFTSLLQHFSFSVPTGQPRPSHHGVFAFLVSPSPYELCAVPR
# Cytochrome P450 3A4 = Cytochrome P450 3A4 (Homo sapiens, UniProt P08684); experiment: Inhibition of CYP3A4 in human liver microsomes incubated for 10 mins by LC-MS/MS analysis; assay type: ADME, Microsome
# [4] = Thermodynamic solubility in aqueous phosphate buffer at pH 2; assay type: physicochemical; settings: read-out: Therm_solubility
# [5] = Thermodynamic solubility in aqueous phosphate buffer at pH 7; assay type: physicochemical; settings: read-out: Therm_solubility
# [6] = Metabolic stability in human liver microsomes assessed as extraction ratio; assay type: ADME, Microsome; settings: read-out: ERH
# [7] = Metabolic stability in rat liver microsomes assessed as extraction ratio; assay type: ADME, Microsome; settings: read-out: ERH
Compound,IC50 [1],Ki [2],IC50 [3],"efflux ratio at 1 h, 5 µM (MDR1 (P-gp))",IC50 (Cytochrome P450 1A2),IC50 (Cytochrome P450 2C19),IC50 (Cytochrome P450 2C8),IC50 (Cytochrome P450 2C9),IC50 (Cytochrome P450 2D6),IC50 (Cytochrome P450 3A4),solubility thermodynamic [4],solubility thermodynamic [5],hepatic extraction ratio [6],hepatic extraction ratio [7]
FC(F)Oc1cc(-n2cc(Cn3ccnc3)nn2)ccc1Cl,59 nM,35 nM,> 10000 nM,3.9,110 nM,420 nM,3400 nM,1100 nM,30 nM,2600 nM,,,,
Cc1cnc(OCc2nnn(-c3cccc(C(F)F)c3)c2C)nc1,1200 nM,3500 nM,,,,,,,,,210 µM,320 µM,,
C[C@@H](Oc1ncccn1)c1cn(-c2ccc(Cl)c(OC(F)F)c2)nn1,,67 nM,,,,,,,,,,,0.59,< 0.17
Cc1cnc(OCc2cn(-c3cccc(C(F)F)c3)nn2)nc1,25 nM,65 nM,> 10000 nM,,,,,,,,17 µM,22 µM,,
Nc1nc(OCc2cn(-c3ccc(F)c(OC(F)F)c3)nn2)ncc1F,16 nM,44 nM,> 10000 nM,3,,,,,,,560 µM,28 µM,,
Cc1ccnc(OCc2cn(-c3ccc(F)c(OC(F)F)c3)nn2)n1,8.3 nM,13 nM,> 10000 nM,0.9,,,,,,,92 µM,70 µM,,
FC(F)Oc1cc(-n2cc(COc3cncnc3)nn2)ccc1Cl,2500 nM,1800 nM,,,,,,,,,,,,
CC(C)(O)c1cnc(OCc2cn(-c3ccc(F)c(OC(F)F)c3)nn2)nc1,49 nM,57 nM,> 10000 nM,11.8,,,,,,,560 µM,510 µM,,
FC(F)Oc1cc(-n2cc(CNc3ncccn3)nn2)ccc1Cl,360 nM,560 nM,> 10000 nM,1.1,> 10000 nM,> 10000 nM,> 10000 nM,> 10000 nM,> 10000 nM,> 10000 nM,,,,
FC(F)Oc1cc(-n2cc(COc3ccncn3)nn2)ccc1Cl,840 nM,900 nM,,1.1,,,,,,,,,,
Fc1ccc(-n2cc(COc3nccc(N4CC(F)C4)n3)nn2)cc1OC(F)F,16 nM,14 nM,> 10000 nM,2.6,,,,,,,> 400 µM,< 4 µM,,
Fc1ccc(-n2cc(COc3ncc(N4CCC4)cn3)nn2)cc1OC(F)F,11 nM,6.8 nM,> 10000 nM,1,,,,,,,11 µM,< 4 µM,,
CNc1ccnc(OCc2cn(-c3ccc(F)c(OC(F)F)c3)nn2)n1,7.8 nM,10 nM,> 10000 nM,7.7,,,,,,,> 400 µM,24 µM,,
FC(F)Oc1cc(-n2cc(CNc3ccccn3)nn2)ccc1Cl,500 nM,630 nM,8000 nM,1,,7900 nM,,,,,,,,
FC(F)Oc1cc(-n2cc(COc3cnccn3)nn2)ccc1Cl,600 nM,680 nM,,0.91,,,,,,,,,,
Fc1cccnc1OCc1cn(C2CCC(Cl)C(OC(F)F)C2)nn1 (stereo not drawn),130 nM,889 nM,,,5200 nM,5300 nM,,,2200 nM,,,,,
FC(F)Oc1cc(-n2cc(CNc3ncco3)nn2)ccc1Cl,390 nM,810 nM,> 10000 nM,1.5,3400 nM,,,,,,,,,
Cc1cnc(OCc2cn(-c3ccc(Cl)c(OC(F)F)c3)nn2)nc1,1.9 nM,1.3 nM,5600 nM,,,,,,,,,,0.83,0.51
FC(F)Oc1cc(-n2cc(COc3cccnn3)nn2)ccc1Cl,580 nM,1870 nM,,,,,,,,,,,,
Cc1cnc(OCc2cn(-c3ccnc(C)c3)nn2)nc1,770 nM,1900 nM,,1.2,,,,,,,560 µM,530 µM,,
